Here are results for four molecules from publication PMC4188605, “Biochemical and Pharmacological Characterization of the Human Lymphocyte Antigen B-Associated Transcript 5 (BAT5/ABHD16A)” (PLoS ONE, 2014).

Experiment [1] deals with T1, hABHD12 (Homo sapiens, UniProt Q8N2K0).
T1 construct: expressed in transfected cells; host or cells: HEK293
T1 sequence (Q8N2K0 1-398): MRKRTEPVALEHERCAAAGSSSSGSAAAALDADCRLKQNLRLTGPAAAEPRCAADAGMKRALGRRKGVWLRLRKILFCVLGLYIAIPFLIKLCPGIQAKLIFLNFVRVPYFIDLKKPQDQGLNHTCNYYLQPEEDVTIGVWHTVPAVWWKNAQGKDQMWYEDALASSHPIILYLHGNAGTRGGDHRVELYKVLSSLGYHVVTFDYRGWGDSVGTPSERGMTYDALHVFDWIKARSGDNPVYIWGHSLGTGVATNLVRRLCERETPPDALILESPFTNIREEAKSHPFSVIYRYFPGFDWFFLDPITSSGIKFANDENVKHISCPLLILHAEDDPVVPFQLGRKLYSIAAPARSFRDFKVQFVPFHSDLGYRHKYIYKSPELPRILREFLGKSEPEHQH
More on the design: method as in PMID 22969151. The note with it: 2-AG as the substrate; range given jointly for hABHD6, hABHD12 and hMAGL; cited from earlier work.

The target of experiment [2] is T2, hMAGL (Homo sapiens, UniProt Q99685).
T2 construct: expressed in transfected cells; host or cells: HEK
T2 sequence (Q99685 1-303): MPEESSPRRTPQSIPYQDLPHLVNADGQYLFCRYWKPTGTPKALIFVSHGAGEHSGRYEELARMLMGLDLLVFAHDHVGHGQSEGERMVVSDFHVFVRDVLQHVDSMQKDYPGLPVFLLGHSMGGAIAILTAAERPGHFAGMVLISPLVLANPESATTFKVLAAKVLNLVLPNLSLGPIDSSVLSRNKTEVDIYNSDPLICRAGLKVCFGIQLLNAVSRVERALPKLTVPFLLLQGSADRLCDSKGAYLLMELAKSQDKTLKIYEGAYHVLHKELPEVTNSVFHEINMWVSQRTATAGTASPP
The conditions noted are these: 2-AG as the substrate; range given jointly for hABHD6, hABHD12 and hMAGL; cited from earlier work.

Experiment [3] concerns the target T3, hABHD6 (Homo sapiens, UniProt Q9BV23).
T3 construct: expressed in transfected cells; host or cells: HEK293
T3 sequence (Q9BV23 1-337): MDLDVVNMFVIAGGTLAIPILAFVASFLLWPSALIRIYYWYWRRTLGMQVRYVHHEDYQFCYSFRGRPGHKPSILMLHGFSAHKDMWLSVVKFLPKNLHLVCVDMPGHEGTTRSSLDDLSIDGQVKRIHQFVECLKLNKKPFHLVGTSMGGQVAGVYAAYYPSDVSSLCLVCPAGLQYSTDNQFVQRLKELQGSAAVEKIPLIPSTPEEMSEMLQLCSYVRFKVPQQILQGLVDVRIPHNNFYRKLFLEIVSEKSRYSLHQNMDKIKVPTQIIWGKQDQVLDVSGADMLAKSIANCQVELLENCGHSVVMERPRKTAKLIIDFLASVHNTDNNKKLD
More on the design: method as in PMID 22969151. The note with it: 2-AG as the substrate; range given jointly for hABHD6, hABHD12 and hMAGL; cited from earlier work.

For experiment [4], the target named is T4, FAAH (Mus musculus, UniProt O08914).
T4 sequence (O08914 1-579): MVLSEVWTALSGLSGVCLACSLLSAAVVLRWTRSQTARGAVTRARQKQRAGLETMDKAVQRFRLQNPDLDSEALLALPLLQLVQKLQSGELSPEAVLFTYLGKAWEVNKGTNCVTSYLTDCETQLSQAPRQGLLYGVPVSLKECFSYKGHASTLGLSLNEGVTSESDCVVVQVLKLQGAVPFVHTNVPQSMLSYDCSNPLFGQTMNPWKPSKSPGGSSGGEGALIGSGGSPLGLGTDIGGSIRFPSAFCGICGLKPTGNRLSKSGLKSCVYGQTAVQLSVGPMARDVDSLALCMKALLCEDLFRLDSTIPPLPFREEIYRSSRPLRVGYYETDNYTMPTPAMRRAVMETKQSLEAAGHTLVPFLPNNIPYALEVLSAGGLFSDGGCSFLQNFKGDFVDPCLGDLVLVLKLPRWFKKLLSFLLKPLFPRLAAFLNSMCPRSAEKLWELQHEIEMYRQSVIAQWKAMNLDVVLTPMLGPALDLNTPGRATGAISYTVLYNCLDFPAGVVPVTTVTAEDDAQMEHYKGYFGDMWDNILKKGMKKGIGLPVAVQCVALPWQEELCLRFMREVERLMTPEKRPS
The experiment can be described thus: Competitive ABPP, mouse brain membrane proteome: FAAH band.

In experiment [5] the target is T5, ABHD6 (Mus musculus, UniProt Q8R2Y0).
T5 sequence (Q8R2Y0 1-336): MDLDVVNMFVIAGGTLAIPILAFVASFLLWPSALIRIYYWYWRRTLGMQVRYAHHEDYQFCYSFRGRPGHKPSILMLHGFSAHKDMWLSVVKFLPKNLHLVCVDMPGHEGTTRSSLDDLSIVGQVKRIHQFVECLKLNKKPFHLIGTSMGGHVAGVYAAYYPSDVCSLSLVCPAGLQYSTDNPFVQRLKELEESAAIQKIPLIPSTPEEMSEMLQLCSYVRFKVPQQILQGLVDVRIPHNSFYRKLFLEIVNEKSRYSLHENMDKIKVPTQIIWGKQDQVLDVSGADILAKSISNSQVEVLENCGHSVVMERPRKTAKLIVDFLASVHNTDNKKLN
The experiment can be described thus: Competitive ABPP, mouse brain membrane proteome: ABHD6 band. The conditions noted are these: reference inhibitor at the indicated concentration, used to identify the band (refs 18, 23, 24).

The target of experiment [6] is T6, MAGL (Mus musculus, UniProt O35678).
T6 sequence (O35678 1-303): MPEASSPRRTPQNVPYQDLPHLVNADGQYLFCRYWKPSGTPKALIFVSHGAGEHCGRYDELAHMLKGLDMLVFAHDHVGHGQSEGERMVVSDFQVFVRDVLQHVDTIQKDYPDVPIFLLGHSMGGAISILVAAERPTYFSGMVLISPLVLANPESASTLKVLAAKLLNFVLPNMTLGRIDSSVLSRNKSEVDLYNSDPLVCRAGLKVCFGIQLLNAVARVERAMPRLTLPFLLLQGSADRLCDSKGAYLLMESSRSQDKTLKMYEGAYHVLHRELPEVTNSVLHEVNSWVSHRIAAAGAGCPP
The experiment can be described thus: Competitive ABPP, mouse brain membrane proteome: MAGL doublet.

The target of experiment [7] is T7, KIAA1363 (Mus musculus, UniProt Q8BLF1).
T7 construct: from tissue; host or cells: mouse whole brain membranes
T7 sequence (Q8BLF1 1-408): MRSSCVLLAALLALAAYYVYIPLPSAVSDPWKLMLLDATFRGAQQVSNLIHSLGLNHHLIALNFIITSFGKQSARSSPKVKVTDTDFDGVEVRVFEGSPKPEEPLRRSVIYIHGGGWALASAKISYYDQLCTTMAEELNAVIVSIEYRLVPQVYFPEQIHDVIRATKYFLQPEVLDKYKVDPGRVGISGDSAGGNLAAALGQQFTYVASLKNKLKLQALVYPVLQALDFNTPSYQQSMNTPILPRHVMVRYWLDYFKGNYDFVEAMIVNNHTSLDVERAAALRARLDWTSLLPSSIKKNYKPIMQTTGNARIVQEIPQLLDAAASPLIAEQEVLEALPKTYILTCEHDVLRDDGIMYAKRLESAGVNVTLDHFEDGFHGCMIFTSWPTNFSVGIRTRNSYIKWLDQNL
Description: Competitive ABPP, mouse brain membrane proteome: KIAA1363 doublet. The experiment is classed as binding. The conditions noted are these: 1 µM or indicated concentrations (Figure 11); 60 min.

Experiment [8] addresses T8, BAT5 (Mus musculus, UniProt Q9Z1Q2).
T8 sequence (Q9Z1Q2 1-558): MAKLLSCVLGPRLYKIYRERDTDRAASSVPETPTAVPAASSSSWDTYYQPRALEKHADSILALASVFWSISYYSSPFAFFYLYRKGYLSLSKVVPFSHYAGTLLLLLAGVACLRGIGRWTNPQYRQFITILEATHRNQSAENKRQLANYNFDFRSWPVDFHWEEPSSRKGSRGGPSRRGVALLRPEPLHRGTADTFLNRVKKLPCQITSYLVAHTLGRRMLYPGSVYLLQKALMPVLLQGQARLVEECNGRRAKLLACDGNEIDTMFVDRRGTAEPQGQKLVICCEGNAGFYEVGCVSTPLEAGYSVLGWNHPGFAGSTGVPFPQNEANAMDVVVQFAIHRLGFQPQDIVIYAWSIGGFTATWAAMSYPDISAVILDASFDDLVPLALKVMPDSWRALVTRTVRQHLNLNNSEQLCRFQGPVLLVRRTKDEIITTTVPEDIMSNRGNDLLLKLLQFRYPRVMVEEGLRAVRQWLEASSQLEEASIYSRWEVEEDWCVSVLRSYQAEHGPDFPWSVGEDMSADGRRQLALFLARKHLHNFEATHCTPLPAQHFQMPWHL
The experiment can be described thus: Competitive ABPP, mouse brain membrane proteome: BAT5 band. The note with it: mouse brain membrane proteome, competitive ABPP.

The subject of experiment [9] is LYPLA1/2. Description: Competitive ABPP, mouse brain membrane proteome: LYPLA1/2 band. The note with it: 1 µM or indicated concentrations (Figure 11); 60 min.
Experiment [10] deals with T9, hBAT5 (Homo sapiens, UniProt O95870).
T9 sequence (O95870 1-558): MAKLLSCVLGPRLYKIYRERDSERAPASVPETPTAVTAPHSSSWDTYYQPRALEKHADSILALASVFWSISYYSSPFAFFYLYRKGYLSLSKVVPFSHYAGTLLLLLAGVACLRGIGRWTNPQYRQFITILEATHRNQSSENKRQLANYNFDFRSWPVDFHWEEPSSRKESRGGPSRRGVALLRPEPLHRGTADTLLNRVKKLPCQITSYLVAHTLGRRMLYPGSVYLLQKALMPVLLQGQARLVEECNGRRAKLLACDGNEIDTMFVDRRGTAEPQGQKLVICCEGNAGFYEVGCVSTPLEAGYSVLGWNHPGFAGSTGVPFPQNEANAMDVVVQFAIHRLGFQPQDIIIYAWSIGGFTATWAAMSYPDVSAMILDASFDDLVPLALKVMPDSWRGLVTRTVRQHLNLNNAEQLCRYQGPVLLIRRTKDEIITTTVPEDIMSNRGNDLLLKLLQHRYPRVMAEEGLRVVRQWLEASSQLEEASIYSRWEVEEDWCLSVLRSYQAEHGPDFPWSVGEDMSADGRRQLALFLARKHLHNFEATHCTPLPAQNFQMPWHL
Description: Inhibition of 1-LG hydrolysis in hBAT5-HEK293 lysates (fluorescent glycerol assay). The experiment is classed as biochemical. The note with it: 1-LG 25 µM; 30 min inhibitor pretreatment; monitored 90 min; mean, n=3; read-out: IC50. Also on record: host or cells: HEK293.

[11] abbreviates: 1 µM or indicated concentrations (Figure 11), 60 min.

As to `CCCCC/C=C\C/C=C\C/C=C\C/C=C\CCCC(=O)OC(CO)CO` [2-AG, 2-arachidonoylglycerol], the Michaelis-Menten constant (Km) in [1], in experiment [2] and in experiment [3] was 110 to 160 µM in each case.

For `O=C(Oc1ccc([N+](=O)[O-])cc1)N1CCN(Cc2cccc(Oc3ccccc3)c2)CC1` [JZL195], the “inhibition of probe labeling of FAAH by reference inhibitor” value in experiment [4] (reference inhibitor at the indicated concentration, used to identify the band (ref 21)) is given as “inhibited”. Also, the “inhibition of probe labeling of ABHD6 by reference inhibitor” value in experiment [5] is “inhibited”. The “inhibition of probe labeling of MAGL by reference inhibitor” value in experiment [6] (reference inhibitor at the indicated concentration, used to identify the band (refs 21, 22)) is recorded as “inhibited”.

For the molecule `COc1nn(-c2ccc(F)cc2)c(=O)o1` [compound 44], the “inhibition of probe binding to KIAA1363” value in [7] is recorded as “shared one off-target with 38”. Also, the “BAT5 selectivity among serine hydrolases as compared to 38” value in [8] is listed as “improved BAT5 selectivity”.

`COc1nn(-c2cccc([N+](=O)[O-])c2)c(=O)o1` [compound 40, 5-Methoxy-3-(3-nitrophenyl)-1,3,4-oxadiazol-2(3H)-one]: in [4] (setting [11]), the “inhibition of probe binding to FAAH” value is “did not visibly affect probe binding”. Besides, the “inhibition of probe binding to LYPLA1/2” value in experiment [9] is “did not visibly affect probe binding”. The IC50 in experiment [10] was 63 nM. Also, in experiment [7], the “inhibition of probe binding to KIAA1363” value is given as “did not visibly affect probe binding”. In experiment [8], the “BAT5 selectivity among serine hydrolases as compared to 38” value was “improved BAT5 selectivity”. For the same molecule, the “inhibition of probe binding to MAGL” value in [6] (setting [11]) was “did not visibly affect probe binding”.

A word on the Km: it is the substrate concentration at which the rate is half of its maximum. For orientation: IC50 means the concentration needed to halve the response being measured.
